Measured values as given in ChEMBL document CHEMBL3217713, “Synthesis and biological evaluation of primaquinechloroquine twin drug: a novel heme-interacting molecule prevents free heme and hydroxyl radical-mediated protein degradation” (Medchemcomm, 2013).
Activity calls are given as the source filed them. The rule behind the calls is not given here.

Experiments:
Heme [1] = experiment: Binding affinity to heme (unknown origin)
[2] = Cytotoxicity against rat gastric mucosal cells assessed as cell viability at 10 to 100 uM after 16 hrs by MTT assay; type: cell-based, Gastric mucosa
[3] = test system: Radical scavenging activity; experiment: Antioxidant activity assessed as DPPH free radical scavenging activity after 30 mins by spectrophotometry; type: functional
[4] = Antioxidant activity assessed as reduction of heme/H2O2-mediated BSA degradation at 50 uM after 1 hr by SDS-PAGE; type: functional
[5] = Antioxidant activity assessed as reduction of hydroxyl radical-mediated BSA damage at 50 uM after 30 mins by SDS-PAGE; type: functional
[6] = Antioxidant activity assessed as reduction of Fe(3)-TPTZ to Fe(2)-TPTZ complex after 5 mins by FRAP assay; type: functional
[7] = Iron chelating activity of the compound assessed as reduction of Fe(2)-TPTZ complex formation by UV-visible spectrophotometry; type: physicochemical
Heme [8] = experiment: Binding affinity to heme (unknown origin) by differential spectroscopy
Heme [9] = experiment: Binding affinity to heme (unknown origin) at 2 to 20 uM by optical spectroscopy

## CCN(CC)CCCC(C)Nc1ccnc2cc(Cl)ccc12 (stereo not drawn)
Heme [1]
  Ka: 5.5 ×10⁴ /M

## COc1cc(NC(C)CCCNc2ccnc3cc(Cl)ccc23)c2ncccc2c1 (stereo not drawn)
[2]
  Activity: Non-toxic
[3]
  Activity: Dose-dependent effect
  IC50: 23 µM
[4]
  Activity: Active
[5]
  Activity: Active
[6]
  Activity: 30 µM
[7]
  Kd: 5.19 µM
Heme [8]
  Kapp: 2.3 ×10⁴ /M
  Kd: 4.34 µM
Heme [9]
  Activity: Active

## COc1cc(NC(C)CCCN)c2ncccc2c1 (stereo not drawn) [PRIMAQUINE]
[2]
  Activity: Toxic

## O=C(O)c1cc(O)c(O)c(O)c1
[6]
  Activity: 33.9 µM
